ChEMBL document CHEMBL1782039, “Discovery of ((1S,3R)-1-isopropyl-3-((3S,4S)-3-methoxy-tetrahydro-2H-pyran-4-ylamino)cyclopentyl)(4-(5-(trifluoromethyl)pyridazin-3-yl)piperazin-1-yl)methanone, PF-4254196, a CCR2 antagonist with an improved cardiovascular profile” (Bioorg Med Chem Lett, 2011)

Columns and labels:
[1] = Intrinsic clearance in human liver microsomes; format: ADME, Microsome
[2] = Half life in rat; format: ADME, organism-based; conditions: in vivo
[3] = Blood clearance in rat; format: ADME, organism-based; conditions: whole blood
in vivo = conditions: rat, brain and plasma
[4] = Lipophilicity, log D of the compound at pH 7.4; format: physicochemical; conditions: buffer
[5] = Bioavailability in rat at 1 mg/kg, po and iv; format: ADME, organism-based; conditions: in vivo

Compound	microsomal CLint [1]	logD [4]	other results
CO[C@@H]1COCC[C@@H]1N[C@@H]1CC[C@@](C(=O)N2CCN(c3cc(C(F)(F)F)ccn3)CC2)(C(C)C)C1	9.3 µL/min/mg		half-life [2]: 3.9 h; clearance [3]: 33.8 mL/min/kg; Kp (in vivo): 3
CO[C@@H]1COCC[C@@H]1N(C)[C@@H]1CC[C@@](C(=O)N2CCN(c3cc(C(F)(F)F)ccn3)CC2)(C(C)C)C1	58 µL/min/mg		
CO[C@@H]1COCC[C@@H]1N[C@@H]1CC[C@@](C(=O)N2CCN(c3ccnc(C(F)(F)F)c3)CC2)(C(C)C)C1	< 7 µL/min/mg	0.7	
CO[C@@H]1COCC[C@@H]1N[C@@H]1CC[C@@](C(=O)N2CCN(c3cc(C(F)(F)F)cnn3)CC2)(C(C)C)C1	< 7 µL/min/mg	0.5	bioavailability [5]: 50%
CC(C)[C@]1(C(=O)N2CCN(c3cc(C(F)(F)F)ccn3)CC2)CC[C@@H](N2CCC3COCCC32)C1 (stereo in doubt; 22)	< 7 µL/min/mg		
CC(C)[C@]1(C(=O)N2CCN(c3cc(C(F)(F)F)cnn3)CC2)CC[C@@H](NC2C3CCCC2COC3)C1 (stereo in doubt; 27)	58 µL/min/mg		
